Data as given in publication PMC9151520 (Archives of Toxicology, 2022).
Where two headings read alike, the source gives them in different places.

Assays:
[1] = tested on: p53 signaling (p53RE-bla HCT-116 cells); experiment: cells; assay type: cell-based; conditions: Homo sapiens; for EC50: HCT-116
[2] = tested on: p53 signaling (p53RE-bla HCT-116 cells)
[3] = tested on: p53 signaling (p53RE-bla HCT-116 cells); experiment: cells; assay type: cell-based; conditions: for EC50 / Emax: Homo sapiens
[4] = tested on: p53RE-bla HCT-116 cells
[5] = tested on: p53 signaling (p53RE-bla HCT-116 cells); experiment: cells; conditions: Homo sapiens
[6] = tested on: p53 signaling (p53RE-bla HCT-116 cells); remark: listed apart in the source
[7] = tested on: p53 signaling (p53RE-bla HCT-116 cells); experiment: cells; conditions: Homo sapiens; for EC50: HCT-116, read-out: p53 activation EC50, HLM
[8] = tested on: p53 signaling (p53RE-bla HCT-116 cells); experiment: cells; assay type: cell-based; conditions: Homo sapiens; for EC50: HCT-116, 0.5 h
[9] = tested on: p53RE-bla HCT-116 cells; experiment: cells; conditions: Homo sapiens, HCT-116, read-out: Viability EC50, cherry pick confirmation
[10] = HCT-116, read-out: p53 activation efficacy
[11] = read-out: p53 activation EC50, RLM
[12] = HCT-116, read-out: p53 activation EC50, RLM

SMILES	EC50 [1]	EC50 ([5]; HCT-116)	Emax ([5]; HCT-116, read-out: efficacy)	EC50 [8]	EC50 [2, 11]	p53 activation EC50, No MS [3]	p53 activation Efficacy, No MS [3]	Viability EC50, HLM [4]	Viability EC50, No MS [4]	Viability EC50, RLM [4]	Viability Efficacy, HLM [4]	Viability Efficacy, No MS [4]	Viability Efficacy, RLM [4]	EC50 [5, 12]	p53 activation EC50, HLM [6]	EC50 [7]	further results
CCOP(=S)(OCC)OC(Cl)C(Cl)(Cl)Cl (stereo not drawn) [Chlorethoxyfos]	7.79 µM	11.4 µM	35.9%	0.75 µM	–	–	–	–	–	–	–	–	–	–	–	–	p53 activation efficacy [2]: 53.0303; EC50 ([2]; read-out: p53 activation EC50): 11.7 µM; p53 activation EC50 [3]: inactive; p53 activation efficacy [3]: inactive; Viability EC50 [4]: inactive; Viability efficacy [4]: inactive; Emax [5, 10]: 43.1%; p53 activation EC50 [6]: inactive; Emax [7, 10]: 44%
O=Nc1ccc(Nc2ccccc2)cc1 [4-Nitrosodiphenylamine]	–	–	–	–	–	–	–	–	–	–	–	–	–	–	–	–	p53 activation EC50, cherry pick confirmation [2]: inactive; p53 activation EC50, primary screening [2]: inactive; p53 activation efficacy, cherry pick confirmation [2]: inactive; p53 activation efficacy, primary screening [2]: inactive; EC50 ([3]; HCT-116, read-out: p53 activation EC50, cherry pick confirmation): 27.6 µM; EC50 ([3]; HCT-116, read-out: p53 activation EC50, primary screening): 47.6 µM; Emax ([3]; HCT-116, read-out: p53 activation efficacy, cherry pick confirmation): 84.9%; Emax ([3]; HCT-116, read-out: p53 activation efficacy, primary screening): 61.2%; Viability EC50, cherry pick confirmation [4]: inactive; Viability EC50, primary screening [4]: inactive; Viability efficacy, primary screening [4]: inactive; EC50 ([4]; read-out: Viability EC50, cherry pick confirmation): 36.3 µM; p53 activation EC50, cherry pick confirmation [6]: inactive; p53 activation EC50, primary screening [6]: inactive; p53 activation efficacy, cherry pick confirmation [6]: inactive; p53 activation efficacy, primary screening [6]: inactive; EC50 [9]: 40.8 µM
COP(N)(=O)SC (stereo not drawn) [Methamidophos]	9.77 µM	11.4 µM	48.9%	6.02 µM	13.8 µM	inactive	inactive	inactive	inactive	inactive	inactive	inactive	inactive	11.2 µM	inactive	2.04 µM	–
CNC(=O)O/N=C(\SC)C(=O)N(C)C [Oxamyl]	22.4 µM	14.2 µM	58.1%	14.4 µM	10.9 µM	inactive	inactive	inactive	inactive	inactive	inactive	inactive	inactive	14.1 µM	inactive	2.96 µM	–
COP(=S)(OC)Oc1ccc(SC)c(C)c1 [Fenthion]	8.86 µM	7.81 µM	39%	1.28 µM	7.2 µM	inactive	inactive	inactive	inactive	inactive	inactive	inactive	inactive	8.91 µM	inactive	1.1 µM	–
CCOP(=S)(OCC)O/N=C(\C#N)c1ccccc1 [Phoxim]	5.3 µM	4.42 µM	34.4%	5.35 µM	5.83 µM	inactive	inactive	inactive	inactive	inactive	inactive	inactive	inactive	3.04 µM	inactive	2.17 µM	Emax ([1]; HCT-116, read-out: efficacy): 42.2%; Emax ([8]; HCT-116, read-out: efficacy): 43.5%
